The values below come from US10662183B2, “Inhibitors of myocardin-related transcription factor and serum response factor (MRTF/SRF)-mediated gene transcription and methods for use of the same” (THE REGENTS OF THE UNIVERSITY OF MICHIGAN, priority 2014, dated 2020).

One test has as its system SRE.L-firefly luciferase reporter (Rho/MKL1 pathway) in PC-3 prostate cancer cells. The test can be described thus: SRE.L-luciferase reporter assay. It counts as cell-based. As to conditions: 19 h, PC-3 cells transfected with Gα12Q231L, SRE.L and pRL-TK reporters; compound 19 hrs. The method, then:
Seed PC-3 prostate cancer cells (40,000 cells/well) were grown in 96-well plates in 10% FBS containing DMEM medium. Cells were transiently transfected with the Ga12QL activator of the Rho/MKL1 pathway, along with the SRE.L-firefly luciferase reporter construct for 6 hours. Additionally, cells were co-transfected with the TK-Renilla luciferase reporter as an indicator of non-specific compound effects. Various concentrations of the compounds disclosed herein were added to the 96-well plates. Plates were incubated for 19 hours at 37° C. and 5% C02 in 0.5% FBS containing DMEM medium. Cells were lysed with IX Passive Lysis Buffer (Promega). Plates were incubated for 30 minutes at room temperature. Luminescence counts were read with a Victor2 (Perkin-Elmer) plate reader.
One hour prior to cell lysis for the dual luciferase assay, 10 μl: per well of WST1 reagent (Roche) was added to the 96-well plates. Plates were incubated for 1 hour at 37° C. and 5% CO2. Cell viability was measured by WST1 absorbance at 450 nm with a Victor2 (Perkin-Elmer) plate reader.
Biological activity of the compounds disclosed herein were assessed in the SRE.L luciferase reporter assay. PC-3 prostate cancer cells were co-transfected with 2 ng of the Gα12Q231L expression plasmid along with 50 ng of the SRE.L and 7 ng of the pRL-TK luciferase reporter plasmids, as described in the Materials and Methods section. Cells were treated with 0 (vehicle, DMSO alone), 1, 3, 10, 30, and 100 μM of a compound disclosed herein for 19 hrs after transfection before lysis. Luminescence was determined as described in the Materials and Methods section. Just before cell lysis, the viability of the cells was measured using the WST-1 cell proliferation reagent as described in the Materials and Methods section. Data are expressed as percentage of inhibition (DMSO alone=0%). The experiments were performed three separate times to achieve n=3 in triplicate.
By IC50 is commonly meant the concentration needed to halve the response being measured. A low value points to greater potency. As to `O=C(Nc1c(F)cccc1F)C1CCCN(C(=O)c2cccc(-c3ccco3)c2)C1` (stereo not drawn) [Example E-097, N-(2,6-difluorophenyl)-1-(3-(furan-2-yl)benzoyl)piperidine-3-carboxamide], inhibition was half-maximal at 32 µM (IC50). That is a double-digit micromolar value.

For `O=C(Nc1ccc(Cl)cc1)C1CN(C(=O)c2cccc(-c3ccco3)c2)CC(F)(F)C1` (stereo not drawn) [Example E-019, N-(4-chlorophenyl)-5,5-difluoro-1-(3-(furan-2-yl)benzoyl)piperidine-3-carboxamide], the IC50 worked out at 0.58 µM.

As for `O=C(Nc1ccc(Cl)cc1)C1CN(C(=O)c2cccc(-c3ccco3)c2)CCS1` (stereo not drawn) [Example E-052, N-(4-chlorophenyl)-4-(3-(furan-2-yl)benzoyl) thiomorpholine-2-carboxamide], the IC50 came to 1.6 µM.

`O=C(Nc1ccc(Cl)cc1)C1CN(C(=O)c2cccc(-n3cccn3)c2)CC(F)(F)C1` (stereo not drawn) [Example E-067, 1-(3-(1H-pyrazol-1-yl)benzoyl)-N-(4-chlorophenyl)-5,5-difluoropiperidine-3-carboxamide] came in with an IC50 of 7 µM.

`CS(=O)(=O)c1ccc(NC(=O)C2CCCN(C(=O)c3cccc(-c4ccco4)c3)C2)cc1` (stereo not drawn) [Example E-095, 1-(3-(furan-2-yl)benzoyl)-N-(4-(methylsulfonyl)phenyl) piperidine-3-carboxamide]: the IC50 was 5.5 µM.

With `O=C(Nc1ccc(Cl)cc1)C1CCCN(C(=O)c2cc(-c3ccco3)ccn2)C1` (stereo not drawn) [Example E-024, N-(4-chlorophenyl)-1-(4-(furan-2-yl)picolinoyl)piperidine-3-carboxamide], the half-inhibitory concentration (IC50) amounted to 4.3 µM.

The molecule `O=C(Nc1ccc(Cl)cc1)C1CCCN(C(=O)c2csc(-c3ccco3)n2)C1` (stereo not drawn) [Example E-038, N-(4-chlorophenyl)-1-(2-(furan-2-yl)thiazole-4-carbonyl) piperidine-3-carboxamide] returned an IC50 of 6.5 µM.

`Cc1ccc(-c2cccc(C(=O)N3CCCC(C(=O)Nc4ccc(Cl)cc4)C3)c2)o1` (stereo not drawn) [Example E-029, N-(4-chlorophenyl)-1-(3-(5-methylfuran-2-yl)benzoyl)piperidine-3-carboxamide] had an IC50 of 3.1 µM.

On to `O=C(Nc1ccc(Cl)cc1)C1CCCN(C(=O)c2cc(-c3ccco3)on2)C1` (stereo not drawn) [Example E-039, N-(4-chlorophenyl)-1-(5-(furan-2-yl)isoxazole-3-carbonyl) piperidine-3-carboxamide], for which the IC50 was found to be 43 µM.

For `O=C(Nc1ccc(Cl)cc1)C1CCCN(C(=O)c2cccc3[nH]ncc23)C1` (stereo not drawn) [Example E-085, N-(4-chlorophenyl)-1-(1H-indazole-4-carbonyl)piperidine-3-carboxamide], the IC50 amounted to 0.31 µM. Against the preceding molecule, the IC50 is about 140-fold lower.

Molecule `CC(c1ccc(-n2cccn2)cc1)N1CCCC(C(=O)Nc2ccc(Cl)cc2)C1` (single isomer, unassigned) [Example E-102, 1-(1-(4-(1H-pyrazol-1-yl)phenyl)ethyl)-N-(4-chlorophenyl)piperidine-3-carboxamide] came in with an IC50 of 1.4 µM.

As for `N#Cc1ccc(NC(=O)C2CCCN(C(=O)c3cccc(-c4ccco4)c3)C2)cc1` (stereo not drawn) [Example E-104, N-(4-cyanophenyl)-1-(3-(furan-2-yl)benzoyl)piperidine-3-carboxamide], half-maximal inhibition (IC50) was put at 2.9 µM.

`O=C(Nc1ccc(Cl)cc1)C1CCCN(C(=O)c2ccc3cn[nH]c3c2)C1` (stereo not drawn) [Example E-093, N-(4-chlorophenyl)-1-(1H-indazole-6-carbonyl)piperidine-3-carboxamide]: the IC50 amounted to 0.49 µM.

The molecule `O=C(Nc1ccc(Cl)cc1)C1CCCN(Cc2ccc(-n3cccc3)cc2)C1` (stereo not drawn) [Example E-110, 1-(4-(1H-pyrrol-1-yl)benzyl)-N-(4-chlorophenyl)piperidine-3-carboxamide] displayed an IC50 of 2.9 µM. Compared with the last molecule, the IC50 is about 5.9-fold higher.

`CCNc1ccc(CN2CCCC(C(=O)Nc3ccc(Cl)cc3)C2)cc1` (stereo not drawn) [Example E-113, N-(4-chlorophenyl)-1-(4-(ethylamino)benzyl)piperidine-3-carboxamide] gave an IC50 of 8 µM.

Turning to `O=C(Nc1ccc(Cl)cc1)C1CN(C(=O)c2cccc(-c3ncccn3)c2)CC(F)(F)C1` (stereo not drawn) [Example E-050, N-(4-chlorophenyl)-5,5-difluoro-1-(3-(pyrimidin-2-yl)benzoyl)piperidine-3-carboxamide], it took 1.1 µM to reach half-maximal inhibition (IC50).

For `O=C(Nc1ccc(F)cc1)C1CCCN(C(=O)c2cccc(-c3ccco3)c2)C1` (stereo not drawn) [Example E-105, N-(4-fluorophenyl)-1-(3-(furan-2-yl)benzoyl)piperidine-3-carboxamide], half-maximal inhibition (IC50) required 13 µM.

In turn, `CN(C)C1CC(C(=O)Nc2ccc(Cl)cc2)CN(C(=O)c2cccc(-c3ccco3)c2)C1` (stereo not drawn) [Example E-064, N-(4-chlorophenyl)-5-(dimethylamino)-1-(3-(furan-2-yl)benzoyl)piperidine-3-carboxamide] returned an IC50 of 6.9 µM. Compared with the last molecule, the IC50 is about 1.9-fold lower.

Consider `CC1(C(=O)Nc2ccc(Cl)cc2)CCCN(C(=O)c2cccc(-c3ccco3)c2)C1` (stereo not drawn) [Example E-028, N-(4-chlorophenyl)-1-(3-(furan-2-yl)benzoyl)-3-methylpiperidine-3-carboxamide], for which the IC50 was found to be 5 µM.

In turn, `O=C(Nc1ccc(Cl)cc1)C1CCCN(C(=O)c2ccc3scnc3c2)C1` (stereo not drawn) [Example E-074, 1-(benzo[d]thiazole-5-carbonyl)-N-(4-chlorophenyl)piperidine-3-carboxamide] returned an IC50 of more than 100 µM.

The molecule `O=C(NCc1ccc(Cl)cc1)C1CCCN(C(=O)c2cccc(-c3ccco3)c2)C1` (stereo not drawn) [Example E-112, N-(4-chlorobenzyl)-1-(3-(furan-2-yl)benzoyl)piperidine-3-carboxamide] gave an IC50 of 21 µM. This counts as double-digit micromolar.

On to `O=C(Nc1ccc(Cl)cc1)C1CN(C(=O)c2cccc(-c3ccco3)c2)CCN1C(=O)NC1CCCC1` (stereo not drawn) [Example E-011, N2-(4-chlorophenyl)-N1-cyclopentyl-4-(3-(furan-2-yl)benzoyl)piperazine-1,2-dicarboxamide], for which the IC50 turned out to be 14 µM.

In turn, `O=C(c1cccc(-c2ccco2)c1)N1CCCC(COc2ccc(Cl)cc2)C1` (stereo not drawn) [Example E-066, (3-((4-chlorophenoxy)methyl)piperidin-1-yl)(3-(furan-2-yl)phenyl)methanone] displayed an IC50 of 2.3 µM.

Molecule `O=C(Nc1ccc(Cl)cc1)C1CCCN(C(=O)c2cccc(-c3cc[nH]n3)c2)C1` (stereo not drawn) [Example E-032, 1-(3-(1H-pyrazol-3-yl)benzoyl)-N-(4-chlorophenyl)piperidine-3-carboxamide] yielded an IC50 of 3.2 µM.

In turn, `CCCOC(=O)N1CCN(C(=O)c2cccc(-c3ccco3)c2)CC1C(=O)Nc1ccc(Cl)cc1` (stereo not drawn) [Example E-013, propyl 2((4-chlorophenyl)carbamoyl)-4-(3-(furan-2-yl)benzoyl)piperazine-1-carboxylate] gave an IC50 of 18 µM. This IC50 is about 5.6-fold higher than that of the molecule before.

As to `O=C(Nc1ccc(Cl)cc1)C1CCCN(C(=O)c2cc3ccc(F)cc3[nH]2)C1` (stereo not drawn) [Example E-079, N-(4-chlorophenyl)-1-(6-fluoro-1H-indole-2-carbonyl)piperidine-3-carboxamide], the IC50 turned out to be 0.92 µM.

Molecule `O=C(Nc1ccc(Cl)cc1)C1CN(C(=O)c2ccc3cc[nH]c3c2)CC(F)(F)C1` (stereo not drawn) [Example E-076, N-(4-chlorophenyl)-5,5-difluoro-1-(1H-indole-6-carbonyl)piperidine-3-carboxamide] returned an IC50 of 1.6 µM.

`O=C(Nc1ccc(Cl)cc1)C1CN(C(=O)c2cccc(-c3cccnc3)c2)CC(F)(F)C1` (stereo not drawn) [Example E-100, N-(4-chlorophenyl)-5,5-difluoro-1-(3-(pyridin-3-yl)benzoyl)piperidine-3-carboxamide] gave an IC50 of 0.91 µM.

The molecule `COC(=O)NC1CC(C(=O)Nc2ccc(Cl)cc2)CN(C(=O)c2cccc(-c3ccco3)c2)C1` (stereo not drawn) [Example E-057, methyl (5-((4-chlorophenyl)carbamoyl)-1-(3-(furan-2-yl)benzoyl)piperidin-3-yl)carbamate] had an IC50 of 22 µM.

In turn, `O=C(Nc1ccc(Cl)cc1)C1CN(C(=O)c2cccc(-c3ccco3)c2)CCS1(=O)=O` (stereo not drawn) [Example E-053, N-(4-chlorophenyl)-4-(3-(furan-2-yl)benzoyl) thiomorpholine-2-carboxamide 1,1-dioxide] gave an IC50 of 6.8 µM.

`O=C(Nc1ccc(Cl)cc1)C1CCCN(C(=O)c2ccc3[nH]ccc3c2)C1` (stereo not drawn) [Example E-087, N-(4-chlorophenyl)-1-(1H-indole-5-carbonyl)piperidine-3-carboxamide]: the IC50 is 0.13 µM.

The test is the same for the next values; noted with them: PC-3 cells transfected with Gα12Q231L, SRE.L and pRL-TK reporters; compound 19 hrs.
`CC(c1ccc(-n2cccn2)cc1)N1CCCC(C(=O)Nc2ccc(Cl)cc2)C1` (single isomer, unassigned) [Example E-103, 1-(1-(4-(1H-pyrazol-1-yl)phenyl)ethyl)-N-(4-chlorophenyl)piperidine-3-carboxamide] returned an IC50 of 2.2 µM.

`COC1CC(C(=O)Nc2ccc(Cl)cc2)CN(C(=O)c2cccc(-c3ccco3)c2)C1` (single isomer, unassigned) [Example E-045, N-(4-chlorophenyl)-1-(3-(furan-2-yl)benzoyl)-5-methoxypiperidine-3-carboxamide] displayed an IC50 of 0.93 µM. Against the preceding molecule, the IC50 is about 2.4-fold lower.
